The assay deals with T1, human recombinant mGluR5 (Homo sapiens, UniProt P41594).
T1 construct: expressed in transfected cells; host or cells: HEK 293
Nature of the assay: positive modulation of mGluR5, calcium based FLIPR assay. To be noted: HEK 293 cell line expressing human recombinant mGluR5; EC50 of the modulation from peak Ca fluorescence signal after glutamate at approx. 5% basal stimulation. Here is the method: The positive modulation of mGluR5 is measured in a HEK 293 cell line expressing human recombinant mGluR5 and is detected with calcium based FLIPR assay. The cells are cultured with DMEM supplemented with 10% FCS, 2 μg/mL tetracycline, 100 μg/mL hygromycin and 500 μg/mL geneticin. The cell culture media is exchanged for tetracycline-free cell culture media 3-7 days before the assay. One day before the assay the cell culture medium is exchanged to DMEM without glutamine and phenol red and supplemented with 10% FCS, 100 μg/mL hygromycin and 500 μg/mL geneticin. On the assay day, the medium of the subconfluent cultures is removed and the cells are detached by addition of 2.5 ml EDTA (0.02%) per 175 cm2 culture flask for 1 minute. The cells are resuspend in Ringer solution (140 mM NaCl, 5 mM KCl, 2.5 mM CaCl2, 1.5 mM MgCl2, 5 mM Glucose, 10 mM Hepes; adjusted to pH 7.4 with NaOH), pooled and Ringer solution added to adjust the volume to 50 mL. The cell suspension is centrifuged for […] at 1500 U/min (425 g). The supernatant is removed and the cells washed a second time with 50 ml fresh Ringer solution and centrifuged again as before. The supernatant is again removed and the pellet resuspended in Ringer solution to 1,000,000 cells/ml (1×10^6 cells/mL). The cells are plated onto BD BioCoat Poly-D-Lysine 384 well plates (20.000 cells/well; 20 μl/well). The lid covered plates are then incubated until use at 37° C./10% CO2. For dye loading, 20 μl of Calcium-4 assay kit solution (prepared according to the manufacturer's description in Ringer solution) are added to the cells and the plates are incubated for […] 37° C. and then […] at room temperature.
Controls, Compound Dilution and Assay Execution:
Each assay plate contained wells with “high” and “low” controls:
Low controls 1% DMSO/ringer solution+basal glutamate activation (defined as 100% CTL).
High controls 10 μM CDPPB+basal glutamate activation (defined as 200% CTL).
Test compounds are dissolved and diluted in DMSO to 100-fold the desired concentrations. In a second step, the compounds are diluted in Ringer solution such that the compounds are 4-fold more concentrated than the desired final assay concentration. The final DMSO concentration was 1%.
20 μl of each compound solution are then transferred to the assay plate and the Ca2+ kinetic is measured to determine any intrinsic compound activity. After 5 mM incubation in the FLIPR device, the second stimulation with 20 μl of glutamate in Ringer solution (glutamate concentration adjusted to approximately 5% basal stimulation of the maximal possible glutamate effect) is added and the kinetic Ca2+ response of the wells was measured for the modulation effect.
The peak height of the Ca release related fluorescence signal (9-66) is used for the EC50. The EC50 of the modulation is calculated over a nonlinear regression with GraphPad Prism (Table 1).

Structures are written as SMILES.

T1 sequence (P41594 21-1212): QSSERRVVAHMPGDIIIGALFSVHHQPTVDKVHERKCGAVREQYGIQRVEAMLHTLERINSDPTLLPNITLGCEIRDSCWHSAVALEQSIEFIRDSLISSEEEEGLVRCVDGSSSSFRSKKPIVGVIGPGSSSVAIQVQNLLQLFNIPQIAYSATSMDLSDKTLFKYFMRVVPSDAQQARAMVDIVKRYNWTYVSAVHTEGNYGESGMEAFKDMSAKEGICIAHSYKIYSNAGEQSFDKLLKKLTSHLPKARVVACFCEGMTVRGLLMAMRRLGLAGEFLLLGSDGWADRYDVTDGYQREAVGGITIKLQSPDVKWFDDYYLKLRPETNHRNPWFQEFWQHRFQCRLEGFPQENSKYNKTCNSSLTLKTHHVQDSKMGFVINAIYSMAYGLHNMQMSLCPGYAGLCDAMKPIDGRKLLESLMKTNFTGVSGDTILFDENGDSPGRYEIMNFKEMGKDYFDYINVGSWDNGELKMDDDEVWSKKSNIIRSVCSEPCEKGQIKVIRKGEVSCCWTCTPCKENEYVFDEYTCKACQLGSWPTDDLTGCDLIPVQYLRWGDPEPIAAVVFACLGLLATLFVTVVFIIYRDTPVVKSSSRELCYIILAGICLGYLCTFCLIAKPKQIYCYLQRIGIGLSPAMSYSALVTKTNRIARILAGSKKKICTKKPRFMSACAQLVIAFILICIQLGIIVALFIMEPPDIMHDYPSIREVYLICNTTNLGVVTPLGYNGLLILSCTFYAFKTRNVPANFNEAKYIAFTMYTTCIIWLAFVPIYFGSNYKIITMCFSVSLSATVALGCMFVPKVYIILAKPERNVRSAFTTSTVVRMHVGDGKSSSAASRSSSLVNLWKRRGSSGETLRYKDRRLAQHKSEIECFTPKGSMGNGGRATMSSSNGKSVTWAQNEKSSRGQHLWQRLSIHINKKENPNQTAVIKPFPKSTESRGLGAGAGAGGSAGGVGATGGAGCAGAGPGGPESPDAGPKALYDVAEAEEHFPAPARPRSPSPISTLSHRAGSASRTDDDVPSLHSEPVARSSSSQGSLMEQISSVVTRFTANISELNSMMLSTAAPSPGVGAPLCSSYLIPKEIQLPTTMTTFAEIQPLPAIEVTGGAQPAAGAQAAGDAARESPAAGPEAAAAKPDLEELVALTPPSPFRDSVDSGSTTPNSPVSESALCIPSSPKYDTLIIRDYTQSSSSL

With `COCc1cc(-c2ccc(F)c(C)c2)nn1CC(=O)N1Cc2nc(C)sc2C1` [Example 7.01.058], the EC50 is 0.279 µM. `Cc1nc2c(s1)CCN(C(=O)Cn1nc(-c3ccc(F)c(C)c3)cc1C)CC2` [Example 7.01.059]: the EC50 came to 0.032 µM. Turning to `Cc1cc(-c2cc(C)n(CC(=O)N3CCc4nc(N)sc4CC3)n2)ccc1F` [Example 7.01.060], the EC50 worked out at 0.101 µM. With `Cc1nc2c(o1)CN(C(=O)Cn1nc(-c3ccc(F)c(C)c3)cc1C)CC2` [Example 7.01.061], the EC50 came out at 0.163 µM.

Consider `Cc1nc2c(s1)CN(C(=O)Cn1nc(-c3ccc(F)c(C)c3)cc1C)C2` [Example 7.01.062], for which the EC50 amounted to 0.242 µM.

In the case of `Cc1nnc(N2CCN(C(=O)Cn3nc(-c4ccc(F)c(C)c4)cc3C)CC2)o1` [Example 7.01.063], the EC50 came to 0.334 µM.

Regarding `Cc1cc(-c2cc(-c3ccccc3)nn2CC(=O)N2CCc3nc(C)sc3CC2)ccn1` [Example 7.01.064], the EC50 came to 1.23 µM. Take `CCc1cc(-c2ccc(F)c(C)c2)nn1CC(=O)N1CCc2ccc(OC)cc2CC1` [Example 7.01.065]: the EC50 was 0.173 µM. With `CCc1cc(-c2ccc(F)c(C)c2)nn1CC(=O)N1CCc2cc(-c3ccccc3)nnc2CC1` [Example 7.01.066], the EC50 was determined as 0.153 µM.

As for `CCc1cc(-c2ccc(F)c(C)c2)nn1CC(=O)N1CCc2nc(C)sc2C1` [Example 7.01.067], the EC50 is 0.122 µM. Regarding `CCc1cc(-c2ccc(F)c(C)c2)nn1CC(=O)N1CCc2nc(N)sc2C1` [Example 7.01.068], the concentration for a half-maximal effect (EC50) is 0.236 µM. As to `CCc1cc(-c2ccc(F)c(C)c2)nn1CC(=O)N1CCc2nc(NC(C)=O)sc2CC1` [Example 7.01.069], the EC50 amounted to 0.38 µM.

On to `CCc1cc(-c2ccc(F)c(C)c2)nn1CC(=O)N1CCc2ccc(C(=O)OC)cc2CC1` [Example 7.01.070], for which the EC50 is 0.128 µM. Consider `CCc1cc(-c2ccc(F)c(C)c2)nn1CC(=O)N1CCc2ccsc2CC1` [Example 7.01.071], for which the EC50 came to 0.233 µM. The value for `CCc1cc(-c2ccc(F)c(C)c2)nn1CC(=O)N1CCc2ccc(N)cc2CC1` [Example 7.01.072] was 0.245 µM. On to `CCc1cc(-c2ccc(F)c(C)c2)nn1CC(=O)N1CCc2ncsc2CC1` [Example 7.01.073], for which the EC50 was determined as 0.084 µM. In the case of `CCc1cc(-c2ccc(F)c(C)c2)nn1CC(=O)N1CCc2nc(C)sc2CC1C` (stereo not drawn) [Example 7.01.074], the concentration for a half-maximal effect (EC50) amounted to 0.091 µM.

As for `CCc1cc(-c2ccc(F)c(C)c2)nn1CC(=O)N1CCc2oc(C)nc2C1` [Example 7.01.075], the EC50 was determined as 0.087 µM. For `CCc1cc(-c2ccc(F)c(C)c2)nn1CC(=O)N1CCc2ccsc2C1` [Example 7.01.076], the EC50 came to 0.412 µM. As for `CCc1cc(-c2ccc(F)c(C)c2)nn1CC(=O)N1CCc2nc(C)oc2C1` [Example 7.01.077], the EC50 worked out at 0.11 µM. Take `Cc1cc(-c2cc(-c3ccccc3)n(CC(=O)N3CCc4ncccc4C3)n2)ccc1F` [Example 7.01.078]: the EC50 worked out at 0.078 µM. `COc1cc2c(cc1OC)CCN(C(=O)Cn1nc(-c3ccc(F)c(C)c3)cc1-c1ccccc1)CC2` [Example 7.01.079]: the EC50 was found to be 0.447 µM. As for `Cc1cc(-c2cc(-c3ccccc3)n(CC(=O)N3CCc4cnc(Nc5ccccc5)nc4CC3)n2)ccc1F` [Example 7.01.080], the EC50 is 0.277 µM. For `Cc1cc(-c2cc(-c3ccccc3)n(CC(=O)N3CCc4cc(=O)n(C)nc4CC3)n2)ccc1F` [Example 7.01.081], the EC50 came to 0.03 µM.

For `Cc1cc(-c2cc(-c3ccccc3)n(CC(=O)N3CCc4cc(-c5ccccc5)nnc4CC3)n2)ccc1F` [Example 7.01.082], the EC50 is 0.066 µM.

On to `COc1ccc2c(c1)CCN(C(=O)Cn1nc(-c3ccc(F)c(C)c3)cc1-c1ccccc1)CC2` [Example 7.01.083], for which the EC50 amounted to 0.086 µM. On to `Cc1cc(-c2cc(-c3ccccc3)n(CC(=O)N3CCc4nc5ccccc5c(C)c4CC3)n2)ccc1F` [Example 7.01.084], for which the EC50 came to 0.034 µM. Consider `Cc1nc2c(o1)CCN(C(=O)Cn1nc(-c3ccc(F)c(C)c3)cc1-c1ccccc1)C2` [Example 7.01.085], for which the EC50 came out at 0.026 µM.

On to `Cc1cc(-c2cc(-c3ccccc3)n(CC(=O)N3CCc4ncc(C)n4CC3)n2)ccc1F` [Example 7.01.086], for which the EC50 turned out to be 0.274 µM. `Cc1cc(-c2cc(-c3ccccc3)n(CC(=O)N3CCc4ccccc4C3)n2)ccc1F` [Example 7.01.087]: the EC50 was 0.125 µM. Regarding `COC(=O)c1ccc2c(c1)CCN(C(=O)Cn1nc(-c3ccc(F)c(C)c3)cc1-c1ccccc1)CC2` [Example 7.01.088], the EC50 was 0.029 µM. On to `Cc1nc2c(s1)CN(C(=O)Cn1nc(-c3ccc(F)c(C)c3)cc1-c1ccccc1)CC2` [Example 7.01.089], for which the EC50 is 0.022 µM. Take `Cc1cc(-c2cc(-c3ccccc3)n(CC(=O)N3CCc4ccccc4CC3)n2)ccc1F` [Example 7.01.090]: the EC50 is 0.24 µM. As to `COc1ccc2c(n1)CCN(C(=O)Cn1nc(-c3ccc(F)c(C)c3)cc1-c1ccccc1)CC2` [Example 7.01.091], the EC50 was found to be 0.037 µM. For the compound `Cc1cc(-c2cc(-c3ccccc3)n(CC(=O)N3CCc4ncnc(-c5ccccc5)c4CC3)n2)ccc1F` [Example 7.01.092], the EC50 is 0.033 µM. Regarding `Cc1cc(-c2cc(-c3ccccc3)n(CC(=O)N3CCc4nc(N)sc4C3)n2)ccc1F` [Example 7.01.093], the EC50 turned out to be 0.035 µM.

`Cc1cc(-c2cc(-c3ccccc3)n(CC(=O)N3CCc4nc(N)oc4CC3)n2)ccc1F` [Example 7.01.094]: the EC50 turned out to be 0.09 µM.

Consider `Cc1cc(-c2cc(-c3ccccc3)n(CC(=O)N3CCc4ccc(N)cc4CC3)n2)ccc1F` [Example 7.01.095], for which the EC50 is 0.053 µM. `CC(=O)Nc1ccc2c(c1)CCN(C(=O)Cn1nc(-c3ccc(F)c(C)c3)cc1-c1ccccc1)CC2` [Example 7.01.097]: the EC50 amounted to 0.109 µM.

As for `CCc1cc(-c2ccc(F)c(C)c2)nn1CC(=O)N1CCc2cn[nH]c2CC1` [Example 7.01.098], the concentration giving a half-maximal response (EC50) is 0.477 µM. Next, `Nc1nc2c(s1)CCN(C(=O)Cn1nc(-c3ccc(F)cc3)cc1-c1ccc(F)cc1)CC2` [Example 7.02.001, 1-(2-Amino-4,5,7,8-tetrahydro-thiazolo (4,5-d)azepin-6-yl)-2-[3,5-bis-(4-fluoro-phenyl)-pyrazol-1-yl]-ethanone]: 0.055 µM; `O=C(Cn1nc(-c2ccccc2)cc1-c1ccccc1)N1CCc2nc(-c3ccccc3)nc(O)c2C1` [Example 7.02.002]: 1.17 µM; `O=C(Cn1nc(-c2ccccc2)cc1-c1ccccc1)N1CCN(c2ccccc2)C(=O)C1` [Example 7.02.003]: 0.925 µM.

Take `O=C(Cn1nc(-c2ccccc2)cc1-c1ccccc1)N1CCc2ncsc2CC1` [Example 7.02.004]: the EC50 came out at 0.689 µM.

In the case of `O=C(Cn1nc(-c2ccccc2)cc1-c1ccccc1)N1CCc2nc(-c3ccccc3)ncc2C1` [Example 7.02.005], the EC50 was determined as 1.26 µM. Regarding `COc1cc2c(cc1OC)CN(C(=O)Cn1nc(-c3ccccc3)cc1-c1ccccc1)CC2` [Example 7.02.006], the concentration giving a half-maximal response (EC50) was 1.95 µM.

Consider `O=C(Cn1nc(-c2ccccc2)cc1-c1ccccc1)N1CCC(c2noc3ccccc23)CC1` [Example 7.02.007], for which the EC50 was 0.6 µM. The value for `Cc1nc(C2CCN(C(=O)Cn3nc(-c4ccccc4)cc3-c3ccccc3)CC2)oc1C` [Example 7.02.008] was 0.997 µM; that for `O=C(Cn1nc(-c2ccccc2)cc1-c1ccccc1)N1CCN(c2nc3ccccc3o2)CC1` [Example 7.02.009] was 0.22 µM.

On to `Cc1nc2c(s1)CCN(C(=O)Cn1nc(-c3ccc(F)cc3)cc1-c1ccc(F)cc1)CC2` [Example 7.02.010], for which the EC50 was found to be 0.013 µM. Consider `Cc1nc2c(s1)CN(C(=O)Cn1nc(-c3ccc(F)cc3)cc1-c1ccc(F)cc1)C2` [Example 7.02.011], for which the EC50 was 0.037 µM. With `COc1cccc(N2CCN(C(=O)Cn3nc(-c4ccc(F)cc4)cc3-c3ccc(F)cc3)CC2=O)c1` [Example 7.02.012], the EC50 is 0.047 µM.

Regarding `Cc1cc(-c2cc(-c3ccccc3)n(CC(=O)N3CCC(c4ccccn4)CC3)n2)ccc1F` [Example 7.02.013], the EC50 is 0.092 µM. Take `Cc1cc(-c2cc(-c3ccccc3)n(CC(=O)N3CC=C(c4ncccn4)CC3)n2)ccc1F` [Example 7.02.014]: the EC50 came to 0.021 µM.
